Experimental data reported in patent US9408393B2, “Bismuth-thiols as antiseptics for agricultural, industrial and other uses” (Microbion Corporation, priority 2010, dated 2016).
Blank lines part the entries; values can stand above or below the compound they belong to.

Tests used:
[1] = test system: resistant E. coli; test: MIC in Mueller-Hinton II broth, antibiotic + BisEDT; type: cell-based, Escherichia coli
Text: Chloramphenicol and ampicillin resistant Escherichia coli were made sensitive to these drugs by the addition of subMIC BisEDT (Table 24).
Tetracycline resistant Escherichia coli were made sensitive to doxycycline by the addition of subMIC BisEDT (Table 25).

[2] = test system: Acinetobacter baumanii; test: Single-point BisEDT-antibiotic combination FICI; type: cell-based; details: Abau 2594
[3] = test system: S. aureus; test: Broth dilution MIC/MBC, BT-antibiotic combinations; type: cell-based, Staphylococcus aureus; details: Staphylococcus aureus, Tobramycin resistant strains table, S. aureus SA-29213
Experimental: Materials & Methods. Susceptibility studies were performed by broth dilution in 96-well tissue culture plates (Nalge Nunc International, Denmark) in accordance with NCCLS protocols (National Committee for Clinical Laboratory Standards. (1997). Methods for Dilution Antimicrobial Susceptibility Tests for Bacteria that Grow Aerobically: Approved Standard M7-A2 and Informational Supplement M100-S10. NCCLS, Wayne, Pa., USA).
Briefly, overnight bacterial cultures were used to prepare 0.5 McFarland standard suspensions, which were further diluted 1:50 (˜2×10^6 cfu/mL) in cation-adjusted Mueller-Hinton broth medium (BBL, Cockeysville, Md., USA). BTs (prepared as described above) and antibiotics were added at incremental concentrations, keeping the final volume constant at 0.2 mL. Cultures were incubated for 24 h at 37° C. and turbidity was assessed by absorption at 630 nm using an ELISA plate reader (Biotek Instruments, Winooski, Vt., USA) according to the manufacturer's recommendations. […] Viable bacterial counts (cfu/mL) were determined by standard plating on nutrient agar.
The checkerboard method was used to assess the activity of antimicrobial combinations. The fractional inhibitory concentration index (FICI) and the fractional bactericidal concentration index (FBCI) were calculated, according to Eliopoulos et al. (Eliopoulos and Moellering, (1996) Antimicrobial combinations. In Antibiotics in Laboratory Medicine (Lorian, V., Ed.), pp. 330-96, Williams and Wilkins, Baltimore, Md., USA). Synergy was defined as an FICI or FBCI index of […], no interaction at >0.5-4 and antagonism at >4 (Odds, F C (2003) Synergy, antagonism, and what the chequerboard puts between them. Journal of Antimicrobial Chemotherapy 52:1). Synergy was also defined conventionally as ≧4-fold decrease in antibiotic concentration.

[4] = test system: Streptococcus pneumoniae (SP, PRSP); test: Single-point BisEDT-antibiotic combination FICI; details: PRSP 5348
[5] = test system: Bukholderia multivorans; test: Single-point BisEDT-antibiotic combination FICI; type: cell-based; details: Bmult 5665
[6] = test system: Burkholderia cepacia; test: Single-point BisEDT-antibiotic combination FICI; type: cell-based; details: Bcep 1756
[7] = test system: Enterococcus faecalis; test: Single-point BisEDT-antibiotic combination FICI; type: cell-based; details: E Fc 3121
[8] = test system: Pseudomonas aeruginosa; test: Single-point BisEDT-antibiotic combination FICI; type: cell-based; details: PA 1380
[9] = test system: Staphylococcus aureus (SA, MRSA); test: Single-point BisEDT-antibiotic combination FICI; type: cell-based
[10] = test system: B. cepacia (B. multivorans, B. cenocepacia); test: MIC and FIC index, tobramycin + BisEDT; type: cell-based, Burkholderia cepacia; details: 0.4 μg/ml BisEDT
[11] = test system: Klebsiella pneumoniae; test: Single-point BisEDT-antibiotic combination FICI; type: cell-based; details: KP 1231
[12] = test system: Escherichia coli; test: Single-point BisEDT-antibiotic combination FICI; type: cell-based; details: EC 2232
[13] = tobramycin-resistant Burkholderia cepacia

SMILES: C[C@H]1c2cccc(O)c2C(=O)C2=C(O)[C@]3(O)C(=O)C(C(N)=O)=C(O)[C@@H](N(C)C)[C@@H]3[C@@H](O)[C@@H]21 [DOX, doxycycline]
FIC, doxycycline + subMIC BisEDT ([1]; E. coli TET M and TET D strains): 0.5

SMILES: CC1(C)S[C@@H]2[C@H](NC(=O)[C@H](N)c3ccccc3)C(=O)N2[C@H]1C(=O)O [AM, ampicillin]
MIC ([1]; Escherichia coli, read-out: Drug + BE MIC, Chloramphenicol/Ampicillin resistant E. coli, BE 0.33 μg/ml): 49 µg/mL

MIC ([3]; read-out: NN MIC): 2 µg/mL | Fold reduction of tobramycin MIC90 [10, 13]: 10 fold
SMILES: NC[C@H]1O[C@H](O[C@H]2[C@H](O)[C@@H](O[C@H]3O[C@H](CO)[C@@H](O)[C@H](N)[C@H]3O)[C@H](N)C[C@@H]2N)[C@H](N)C[C@@H]1O [Tobramycin]
FICI, single-point BisEDT-antibiotic combination [2]: 1.12 | MBC ([3]; read-out: NN MBC): 2 µg/mL | FICI, single-point BisEDT-antibiotic combination [4]: 0.57 | FICI, single-point BisEDT-antibiotic combination [5]: 0.67 | FICI, single-point BisEDT-antibiotic combination [6]: 0.91 | FICI, single-point BisEDT-antibiotic combination [7]: 0.47 | FICI, single-point BisEDT-antibiotic combination [8]: 1.29 | FICI, single-point BisEDT-antibiotic combination ([9]; MRSA 773): 0.78 | FICI, single-point BisEDT-antibiotic combination ([9]; SA 100): 0.73 | Isolates rendered tobramycin sensitive [10]: seven of 10 | mean FIC [10, 13]: 0.48 | FICI, single-point BisEDT-antibiotic combination [11]: 0.87 | FICI, single-point BisEDT-antibiotic combination [12]: 0.96
